Reference: paper PMC5603853, “Physicochemical, Stress Degradation Evaluation and Pharmacokinetic Study of AZGH102, a New Synthesized COX2 Inhibitors after I.V. and Oral Administration in Male and Female Rats” (Iranian Journal of Pharmaceutical Research : IJPR, 2017)
≈ marks a conversion by molar mass, not a printed value. Where two headings read alike, the source gives them in different places.

Columns and labels:
[1] = Octanol/water partition coefficient (OECD Guideline No. 107); type: physicochemical; conditions: 3 replications, read-out: log P (logarithm of octanol/water partition coefficient)
Description: (§1) Melting point was determined with an Electrothermal 9200 apparatus (UK). Moreover, aqueous solubility and octanol/water partition coefficient of the synthesized derivative was determined according to Organisation for Economic Co-operation and Development (OECD) Guideline for Testing of Chemicals, No.105 and No. 107, respectively ([6]-[8]).

[2] = Forced degradation stability study (ICH guideline); type: physicochemical; set-up: Forced tests results, Mean ±SD: unit not given here; conditions: for Forced tests results, Mean ±SD: n=3
Description: The stability study was conducted according to forced degradation protocol ICH guideline for new drug substance ([9]-[11]). The study evaluated the stability of AZGH 102 at acidic, basic, and neutral medium. Moreover, the effect of oxidative condition (H2O2, 3 and 30%), thermal degradation at solid state and photolysis on the stability of AZGH 102 was evaluated.

COX-2 = conditions: in comparison with celecoxib; cited from earlier work
[3] = Pharmacokinetic study after intravenous administration; type: in vivo; conditions: intravenous 10 mg/Kg; for AUC(0-inf) / C0 / Vd / clearance / half-life / k el: rat, plasma; for half-life: read-out: t1/2 β (converted); for k el: read-out: β (elimination rate constant) (converted)
Description: (§2) Male and female Wistar rats weighting 250 ± 10 g were used. They were housed in animal center of author’s institute. Each rat was housed in a cage which was kept at 25 ± 1 °C temperature and controlled humidity with 12 h light/dark cycle. Animals were fasted overnight before the experiment and had free access to water. The study protocol was approved by the local ethics committee for animal experiments of Shahid Beheshti University of Medical Sciences (Tehran, Iran).
(§3) The rats (12 male and 12 female) were randomly divided into four groups (6 rats/group) and assigned to receive AZGH 102 solution via intravenous (IV) and/or oral administration. The administered doses in both male and female groups for IV and oral studies were 10 mg/Kg and 20 mg/Kg, respectively. Blood samples were collected from the tail vein immediately prior to (blank sample) and at 0.08, 0.25, 0.5, 1, 2, 4, 6, 8, 10, 21 and 22 h after drug administration into heparinized micro-tubes. Blood samples were centrifuged at 1000 g for 10 min and the separated plasma samples were kept at – 20 °C until analysis.
(§4) Two-compartmental model was selected and pharmacokinetic analyses were performed using WinNonlin software (Pharsight Corporation, Mountain View, USA, Version 3.2). The following pharmacokinetic parameters were estimated: terminal elimination half-life (t1/2), area under the plasma concentration versus time curve from zero to the infinity (AUC 0-∞), distribution and elimination rate constants (α, β), y intercepts (A, B), volume of distribution (Vd), and total body clearance (CL). The peak plasma concentration (Cmax) and the time to reach Cmax (Tmax) for oral dose were obtained directly from the observed individual plasma concentration-time data.

[4] = Aqueous solubility (OECD Guideline No. 105); type: physicochemical; conditions: thermodynamic from solid; water; 3 replications
Description: as §1

[5] = Pharmacokinetic study after oral administration; type: in vivo; conditions: for Cl / Ka / Vd / α (distribution rate constant) / AUC(0-inf) / Cmax / Tmax / half-life / k el: oral 20 mg/Kg; for bioavailability / AUC(0-inf) / Cmax / Tmax / half-life / k el: rat, plasma; for bioavailability: oral 20 mg/Kg vs IV 10 mg/Kg, read-out: F (absolute bioavailability); for half-life: read-out: t1/2 β (converted); for k el: read-out: β (elimination rate constant) (converted)
Description: as §2, §3, §4

CS(=O)(=O)c1ccc(-c2cc(C(=O)O)c3cccc(C(=O)c4ccccc4)c3n2)cc1 [AZGH 102, 8-benzoyl-2-(4-(methylsulfonyl)phenyl)quinoline-4-carboxylic acid]
logP [1]: 3.75 ± 0.001 | Forced tests results, Mean ±SD ([2]; Hydrolysis (Acid), fraction recovered intact): 0.94±0.02 | Forced tests results, Mean ±SD ([2]; Hydrolysis (Base)): 0.92±0.01 | Forced tests results, Mean ±SD ([2]; Hydrolysis (Buffer pH=7)): 0.95±0.04 | Forced tests results, Mean ±SD ([2]; Oxidative stress (H2O2-3%)): 0.94±0.02 | Forced tests results, Mean ±SD ([2]; Oxidative stress (H2O2-30%)): 0.90±0.04 | Forced tests results, Mean ±SD ([2]; Photodegradation (Acid)): 0.93±0.02 | Forced tests results, Mean ±SD ([2]; Photodegradation (Base)): 0.96±0.04 | Forced tests results, Mean ±SD ([2]; Photodegradation (Buffer pH=7)): 0.93±0.02 | Forced tests results, Mean ±SD ([2]; Thermal Degradation (solid phase)): 0.95±0.03 | recovered intact ([2]; in all of the examined stress conditions): more than 90% | selectivity index (COX-1/COX-2 inhibitory potency) (COX-2): improved selectivity index | α (distribution rate constant) ([3]; female Wistar rats): 3.87 ± 1.11 h⁻¹ | α (distribution rate constant) ([3]; male Wistar rats): 2.98 ± 0.67 h⁻¹ | AUC(0-inf) ([3]; female Wistar rats): 85800 ± 9230 ng·h/mL | C0 ([3]; female Wistar rats): 100 ± 14.1 µg/mL | Vd ([3]; female Wistar rats): 0.101 ± 0.0137 L | clearance ([3]; female Wistar rats): 0.491 mL/min | half-life ([3]; female Wistar rats): 2.38 ± 0.12 h | k el ([3]; female Wistar rats): 0.00015 s⁻¹ | AUC(0-inf) ([3]; male Wistar rats): 91300 ± 17100 ng·h/mL | C0 ([3]; male Wistar rats): 113 ± 7.99 µg/mL | Vd ([3]; male Wistar rats): 0.0997 ± 0.0152 L | clearance ([3]; male Wistar rats): 0.47 mL/min | half-life ([3]; male Wistar rats): 2.23 ± 0.74 h | k el ([3]; male Wistar rats): 8.06e-05 s⁻¹ | solubility [4]: 2.7 ± 0.09 µg/mL (≈ 6.26 µM) | Cl ([5]; female Wistar rats): 29.15 ± 0.47 mL/h | Ka ([5]; female Wistar rats): 1.26 ± 0.34 h⁻¹ | Vd ([5]; female Wistar rats): 156.27 ± 4.54 mL | α (distribution rate constant) ([5]; female Wistar rats): 3.70 ± 1.56 h⁻¹ | Cl ([5]; male Wistar rats): 27.47 ± 1.81 mL/h | Ka ([5]; male Wistar rats): 0.69 ± 0.15 h⁻¹ | Vd ([5]; male Wistar rats): 147.04 ± 9.43 mL | α (distribution rate constant) ([5]; male Wistar rats): 5.79 ± 2.33 h⁻¹ | bioavailability ([5]; female Wistar rats): 25.6 ± 0.4% | bioavailability ([5]; male Wistar rats): 27 ± 1.85% | AUC(0-inf) ([5]; female Wistar rats): 43900 ± 710 ng·h/mL | Cmax ([5]; female Wistar rats): 16.5 ± 1.05 µg/mL | Tmax ([5]; female Wistar rats): 0.5 h | half-life ([5]; female Wistar rats): 3.72 ± 0.1 h | k el ([5]; female Wistar rats): 5.28e-05 s⁻¹ | AUC(0-inf) ([5]; male Wistar rats): 49300 ± 3380 ng·h/mL | Cmax ([5]; male Wistar rats): 19.6 ± 1.96 µg/mL | Tmax ([5]; male Wistar rats): 0.5 h | half-life ([5]; male Wistar rats): 3.71 ± 0.16 h | k el ([5]; male Wistar rats): 5.28e-05 s⁻¹
